# Values of other authors as cited in PubChem BioAssay AID1259409 (Chemical Carcinogenesis Research Information System (CCRIS), 2018).
# Test system: rodent chemically induced tumor inhibition, incidence and multiplicity
# Experiment: CCRIS tumor inhibitor studies
# Settings: for tumour outcome (control, treated, inhibition, significance): Promoter: NONE USED; for outcome: Carcinogen: 2-Amino-1-methyl-6-phenylimidazo[4,5-b]pyridine (105650-23-5), Dose [Inhibitor]: 0.2% in drinking water for 4 wk (Study duration 48 wk), Route [Inhibitor]: Oral, Species: Rat, Strain/Sex: Sprague Dawley/Female, Dose [Carcinogen]: 100 mg/kg twice a wk for 4 wk (Test material solvent: corn oil), Promoter: None used
structure (smiles),measurement,setting,value
CC1=C(/C=C/C(C)=C/C=C/C(C)=C/C(=O)NCC(O)CO)C(C)(C)CCC1 (configuration not stated),"tumour outcome (control, treated, inhibition, significance)","Carcinogen: N-BUTYL-N-(4-HYDROXYBUTYL)NITROSAMINE, 3817-11-6, Dose [Inhibitor]: 1.5 MMOL/KG/D IN DIET FOR 108 D STARTING 1 WK POST CARCINOGEN TREATMENT (STUDY DURATION: 171 D), Route [Inhibitor]: ORAL, Species: MOUSE, Strain/Sex: BDF/MALE, Target Tissue: Type of Lesion: URINARY BLADDER: TRANSITIONAL CELL CARCINOMA, Dose [Carcinogen]: 5 MG 2/WK FOR 9 WK","31/55 (56%), 25/54 (46%), 18%, not significant"
same,"tumour outcome (control, treated, inhibition, significance)","Carcinogen: N-NITROSOBIS(2-OXOPROPYL)AMINE, 60599-38-4, Dose [Inhibitor]: 0.25 MMOL/KG OF DIET FOR 184 D STARTING 2 WK AFTER LAST CARCINOGEN DOSE WITH 4 INTERMITTENT 1 WK REST PERIODS OF VEHICLE, Route [Inhibitor]: ORAL, Species: HAMSTER, Strain/Sex: SYRIAN/FEMALE, Target Tissue: Type of Lesion: PANCREAS: CARCINOMA, Dose [Carcinogen]: 20 MG/KG INJECTION GIVEN TWICE 1 WK APART","38%, 35%, 8%, not calculated"
same,"tumour outcome (control, treated, inhibition, significance)","Carcinogen: N-NITROSOBIS(2-OXOPROPYL)AMINE, 60599-38-4, Dose [Inhibitor]: 0.25 MMOL/KG OF DIET FOR 184 D STARTING 2 WK AFTER LAST CARCINOGEN DOSE WITH 4 INTERMITTENT 1 WK REST PERIODS OF VEHICLE, Route [Inhibitor]: ORAL, Species: HAMSTER, Strain/Sex: SYRIAN/MALE, Target Tissue: Type of Lesion: PANCREAS: CARCINOMA, Dose [Carcinogen]: 20 MG/KG INJECTION GIVEN TWICE 1 WK APART","34%, 43%, -26%, not calculated"
same,"tumour outcome (control, treated, inhibition, significance)","Carcinogen: N-NITROSOBIS(2-OXOPROPYL)AMINE, 60599-38-4, Dose [Inhibitor]: 0.25 MMOL/KG OF DIET FOR 350 D STARTING 2 WK AFTER LAST CARCINOGEN DOSE AND INTERRUPTED TWICE BY 1 WK REST PERIODS OF VE, Route [Inhibitor]: ORAL, Species: HAMSTER, Strain/Sex: SYRIAN/FEMALE, Target Tissue: Type of Lesion: LIVER: HEPATOCELLULAR CARCINOMA, Dose [Carcinogen]: 20 MG/KG INJECTION GIVEN TWICE 1 WK APART","5%, 28%, -460%, not calculated"
same,"tumour outcome (control, treated, inhibition, significance)","Carcinogen: N-NITROSOBIS(2-OXOPROPYL)AMINE, 60599-38-4, Dose [Inhibitor]: 0.25 MMOL/KG OF DIET FOR 350 D STARTING 2 WK AFTER LAST CARCINOGEN DOSE AND INTERRUPTED TWICE BY 1 WK REST PERIODS OF VE, Route [Inhibitor]: ORAL, Species: HAMSTER, Strain/Sex: SYRIAN/MALE, Target Tissue: Type of Lesion: LIVER: HEPATOCELLULAR CARCINOMA, Dose [Carcinogen]: 20 MG/KG INJECTION GIVEN TWICE 1 WK APART","7%, 14%, -100%, not calculated"
same,"tumour outcome (control, treated, inhibition, significance)","Carcinogen: N-NITROSOBIS(2-OXOPROPYL)AMINE, 60599-38-4, Dose [Inhibitor]: 0.5 MMOL/KG OF DIET FOR 153 D STARTING 2 WK AFTER LAST CARCINOGEN DOSE WITH 4 INTERMITTENT 1 WK REST PERIODS OF VEHICLE-, Route [Inhibitor]: ORAL, Species: HAMSTER, Strain/Sex: SYRIAN/FEMALE, Target Tissue: Type of Lesion: LIVER: HEPATOCELLULAR CARCINOMA, Dose [Carcinogen]: 20 MG/KG INJECTION GIVEN TWICE 1 WK APART","5%, 0%, 100%, not calculated"
same,"tumour outcome (control, treated, inhibition, significance)","Carcinogen: N-NITROSOBIS(2-OXOPROPYL)AMINE, 60599-38-4, Dose [Inhibitor]: 0.5 MMOL/KG OF DIET FOR 153 D STARTING 2 WK AFTER LAST CARCINOGEN DOSE WITH 4 INTERMITTENT 1 WK REST PERIODS OF VEHICLE-, Route [Inhibitor]: ORAL, Species: HAMSTER, Strain/Sex: SYRIAN/FEMALE, Target Tissue: Type of Lesion: PANCREAS: NEOPLASM, Dose [Carcinogen]: 20 MG/KG INJECTION GIVEN TWICE 1 WK","38%, 21%, 45%, not calculated"
same,"tumour outcome (control, treated, inhibition, significance)","Carcinogen: N-NITROSOBIS(2-OXOPROPYL)AMINE, 60599-38-4, Dose [Inhibitor]: 0.5 MMOL/KG OF DIET FOR 153 D STARTING 2 WK AFTER LAST CARCINOGEN DOSE WITH 4 INTERMITTENT 1 WK REST PERIODS OF VEHICLE-, Route [Inhibitor]: ORAL, Species: HAMSTER, Strain/Sex: SYRIAN/MALE, Target Tissue: Type of Lesion: PANCREAS: CARCINOMA, Dose [Carcinogen]: 20 MG/KG INJECTION GIVEN TWICE 1 WK APART","34%, 36%, -6%, not calculated"
Oc1ccc(O)cc1,"tumour outcome (control, treated, inhibition, significance)","Carcinogen: BENZO[A]PYRENE, 50-32-8, Dose [Inhibitor]: 5 MG IN 0.1 ML ACETONE 3/WK ADMINISTERED SIMULTANEOUSLY WITH CARCINOGEN FOR DURATION OF STUDY (STUDY DURATION: 368 D), Route [Inhibitor]: DERMAL, Species: MOUSE, Strain/Sex: ICR/FEMALE, Target Tissue: Type of Lesion: SKIN: PAPILLOMA, Dose [Carcinogen]: 5 UG IN 0.1 ML ACETONE 3/WK FOR DURATION OF STUDY","14/50 (28%), 7/50 (14%), 50%, not calculated"
same,"tumour outcome (control, treated, inhibition, significance)","Carcinogen: BENZO[A]PYRENE, 50-32-8, Dose [Inhibitor]: 5 MG IN 0.1 ML ACETONE 3/WK ADMINISTERED SIMULTANEOUSLY WITH CARCINOGEN FOR DURATION OF STUDY (STUDY DURATION: 368 D), Route [Inhibitor]: DERMAL, Species: MOUSE, Strain/Sex: ICR/FEMALE, Target Tissue: Type of Lesion: SKIN: SQUAMOUS CARCINOMA, Dose [Carcinogen]: 5 UG IN 0.1 ML ACETONE 3/WK FOR DURATION OF STUDY","10/50 (20%), 3/50 (6%), 70%, not calculated"
same,"tumour outcome (control, treated, inhibition, significance)","Carcinogen: N-ETHYL-N-HYDROXYETHYLNITROSAMINE, 13147-25-6, Dose [Inhibitor]: 0, 0.8% IN DIET FOR 36 WK BEGINNING 1 WK POST CARCINOGEN TREATMENT (STUDY DURATION: 40 WK), Route [Inhibitor]: ORAL, Species: RAT, Strain/Sex: WISTAR/MALE, Target Tissue: Type of Lesion: LIVER: HEPATOCELLULAR ADENOMA, Dose [Carcinogen]: 0.1% IN DRINKING WATER FOR 3 WK","10/17 (59%), 11/18 (61%), -3%, not significant"
same,"tumour outcome (control, treated, inhibition, significance)","Carcinogen: N-ETHYL-N-HYDROXYETHYLNITROSAMINE, 13147-25-6, Dose [Inhibitor]: 0, 0.8% IN DIET FOR 36 WK BEGINNING 1 WK POST CARCINOGEN TREATMENT (STUDY DURATION: 40 WK), Route [Inhibitor]: ORAL, Species: RAT, Strain/Sex: WISTAR/MALE, Target Tissue: Type of Lesion: LIVER: HEPATOCELLULAR CARCINOMA, Dose [Carcinogen]: 0.1% IN DRINKING WATER FOR 3 WK","7/17 (41%), 3/18 (17%), 56%, not significant"
O=NO,"tumour outcome (control, treated, inhibition, significance)","Carcinogen: 2-AMINO-1-METHYL-6-PHENYL-1H-IMIDAZO[4,5-B]PYRID INE, 105650-23-5, Dose [Inhibitor]: 0, 0.2% IN DRINKING WATER FOR 4 WK BEGINNING AT 6 WK OF AGE (STUDY DURATION: 48 WK), Route [Inhibitor]: ORAL, Species: RAT, Strain/Sex: SPRAGUE-DAWLEY/FEMALE, Target Tissue: Type of Lesion: MAMMARY GLAND: ADENOCARCINOMA, Dose [Carcinogen]: 100 MG/KG BW 2/WK FOR 4 WK CONCURRENT WITH INHIBITOR","11/20 (55%), 6/10 (60%), -9%, not significant"
same,"tumour outcome (control, treated, inhibition, significance)","Carcinogen: 2-AMINO-1-METHYL-6-PHENYL-1H-IMIDAZO[4,5-B]PYRID INE, 105650-23-5, Dose [Inhibitor]: 0, 0.2% IN DRINKING WATER FOR 4 WK BEGINNING AT 6 WK OF AGE (STUDY DURATION: 48 WK), Route [Inhibitor]: ORAL, Species: RAT, Strain/Sex: SPRAGUE-DAWLEY/FEMALE, Target Tissue: Type of Lesion: MAMMARY GLAND: FIBROADENOMA, Dose [Carcinogen]: 100 MG/KG BW 2/WK FOR 4 WK CONCURRENT WITH INHIBITOR","3/20 (15%), 2/10 (20%), -33%, not significant"
same,outcome,Target Tissue: Type of Lesion: Mammary gland: Carcinoma,"11/20 (55%), 6/10 (60%), not significant"
same,outcome,Target Tissue: Type of Lesion: Mammary gland: Fibroadenoma,"3/20 (15%), 2/10 (20%), not significant"
C=CC(C)(O)CC/C=C(\C)CCC=C(C)C (configuration not stated),"tumour outcome (control, treated, inhibition, significance)","Carcinogen: AZOXYMETHANE, 25843-45-2, Dose [Inhibitor]: 0, 5 MG/G IN DIET FOR 22 WK BEGINNING 3 D POST LAST CARCINOGEN DOSE (STUDY DURATION: 25 WK), Route [Inhibitor]: ORAL, Species: RAT, Strain/Sex: F344/MALE, Target Tissue: Type of Lesion: DUODENUM: ADENOCARCINOMA, Dose [Carcinogen]: 15 MG/KG BW 2/WK FOR 3 WK","50%, 26%, 48%, not significant"
